In US20260193293A1, “PEPTIDES CAPABLE OF INHIBITING PROTEIN-PROTEIN INTERACTIONS AT GABAB1A SUBUNIT AND USES THEREOF” (UNIVERSITY OF COPENHAGEN, priority 2022, published 2026):
Like-named read-outs stand apart in the source and are kept apart here. Values belong to the compound of their own block, whether it stands above or below them. Non-standard residues stand in square brackets, D forms with d. Residues, ends and D or L forms follow the SMILES beside them. NMeE = CN[C@@H](CCC(=O)O)C(=O)O; NMeV = CN[C@H](C(=O)O)C(C)C

Biological target: Sushi domains (SD1/2) protein
Experiment: Fluorescence polarization (FP) competition assay with AJAP-1probe, calculated Ki
Format: binding
How it was run: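 Ki values were derived from IC50s (sigmoidal fits, ≥ triplicate), with probe Kd obtained by saturation titration of SD1/2. Peptides displaced a 25 nM TAMRA-labelled probe; polarization read at 530/580 nm in 1% BSA-containing PBS, pH 7.4, room temperature.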

[1] = Table 11, deep mutational scanning validation variants of AJAP-1WT, read-out: Ki (nM) mean ± SEM
[2] = Table 10, deep mutational scanning validation variants of APPWT, read-out: Ki (nM) mean ± SEM
[3] = Table 4, truncation and elongation scans of APP epitope, read-out: Ki (nM) mean ± SEM
[4] = Table 14, CPPs tagged peptides, read-out: Ki (nM) mean ± SEM
[5] = Table 8, Ala-, D-amino acids and N-methylation scans of AJAP-1WT, read-out: Ki (nM) mean ± SEM

- Ki [1]: 18 ± 1 nM
SMILES: CC[C@H](C)[C@H](NC(=O)[C@H](Cc1ccc(O)cc1)NC(=O)[C@H](CCC(=O)O)NC(=O)[C@@H](NC(=O)[C@H](CCC(=O)O)NC(C)=O)[C@@H](C)O)C(=O)N[C@@H](C)C(=O)N[C@@H](Cc1c[nH]c2ccccc12)C(=O)NCC(=O)N1CCC[C@H]1C(=O)N[C@H](C(=O)NCC(=O)N[C@@H](CC(=O)O)C(=O)N[C@@H](CCC(=O)O)C(=O)N[C@@H](CC(=O)O)C(N)=O)[C@@H](C)O [ETEYIAWGPTGDED, Ac-ETEYIAWGPTGDED-NH2] (Ac-ETEYIAWGPTGDED-NH2)

- Ki (Table 9, Ala-, D-amino acids and N-methylation scans of PIANPWT, read-out: Ki (nM) mean ± SEM): 480 ± 4 nM
SMILES: CC[C@H](C)[C@H](NC(=O)[C@H](C)NC(=O)[C@H](Cc1c[nH]c2ccccc12)NC(=O)[C@@H]1CCCN1C(C)=O)C(=O)N[C@H](C(=O)N[C@@H](Cc1c[nH]c2ccccc12)C(=O)NCC(=O)N1CCC[C@H]1C(=O)N[C@H](C(=O)N[C@H](C(=O)N[C@@H](C)C(=O)N[C@@H](CCCNC(=N)N)C(=O)N[C@@H](CCC(=O)O)C(=O)N[C@@H](CC(=O)O)C(N)=O)C(C)C)[C@@H](C)O)C(C)C [PWAIVWGPTVARED] (Ac-PWAIVWGPTVARED-NH2)

- Ki [1]: 35 ± 2 nM
SMILES: CC[C@H](C)[C@H](NC(=O)[C@H](Cc1c[nH]c2ccccc12)NC(=O)[C@H](CCC(=O)O)NC(=O)[C@@H](NC(=O)[C@H](CCC(=O)O)NC(C)=O)[C@@H](C)O)C(=O)N[C@@H](C)C(=O)N[C@@H](Cc1c[nH]c2ccccc12)C(=O)NCC(=O)N1CCC[C@H]1C(=O)N[C@H](C(=O)NCC(=O)N[C@@H](CC(=O)O)C(=O)N[C@@H](CCC(=O)O)C(=O)N[C@@H](CC(=O)O)C(N)=O)[C@@H](C)O [ETEWIAWGPTGDED] (Ac-ETEWIAWGPTGDED-NH2)

- Ki [1]: 26 ± 1 nM
SMILES: CC[C@H](C)[C@H](NC(=O)[C@H](Cc1ccccc1)NC(=O)[C@H](CC(=O)O)NC(=O)[C@@H](NC(=O)[C@H](CCC(=O)O)NC(C)=O)[C@@H](C)O)C(=O)N[C@@H](C)C(=O)N[C@@H](Cc1c[nH]c2ccccc12)C(=O)NCC(=O)N1CCC[C@H]1C(=O)N[C@H](C(=O)NCC(=O)N[C@@H](CC(=O)O)C(=O)N[C@@H](CCC(=O)O)C(=O)N[C@@H](CC(=O)O)C(N)=O)[C@@H](C)O [ETDFIAWGPTGDED] (Ac-ETDFIAWGPTGDED-NH2)

- Ki [2]: 332 ± 13 nM
SMILES: CC(=O)N[C@@H](CCC(=O)O)C(=O)N[C@@H](CC(=O)O)C(=O)N[C@@H](CC(=O)O)C(=O)N[C@@H](CO)C(=O)N[C@@H](CC(=O)O)C(=O)N[C@H](C(=O)N[C@@H](Cc1c[nH]c2ccccc12)C(=O)N[C@@H](Cc1c[nH]c2ccccc12)C(=O)NCC(=O)N1CCC[C@H]1C(=O)N[C@@H](C)C(=O)N[C@@H](CC(=O)O)C(=O)N[C@H](C(=O)N[C@@H](CC(=O)O)C(N)=O)[C@@H](C)O)C(C)C (Ac-EDDSDVWWGPADTD-NH2)

- Ki [3]: 1020 ± 18 nM
SMILES: CC(=O)N[C@@H](CCC(=O)O)C(=O)N[C@@H](CCC(=O)O)C(=O)N[C@@H](CC(=O)O)C(=O)N[C@@H](CC(=O)O)C(=O)N[C@@H](CO)C(=O)N[C@@H](CC(=O)O)C(=O)N[C@H](C(=O)N[C@@H](Cc1c[nH]c2ccccc12)C(=O)N[C@@H](Cc1c[nH]c2ccccc12)C(=O)NCC(=O)NCC(=O)N[C@@H](C)C(N)=O)C(C)C (Ac-EEDDSDVWWGGA-NH2)

- Ki (Table 7, Ala-, D-amino acids and N-methylation scans of APPWT, read-out: Ki (nM) mean ± SEM): 12300 ± 375 nM
SMILES: CC(=O)N[C@@H](CCC(=O)O)C(=O)N[C@@H](CC(=O)O)C(=O)N[C@@H](CC(=O)O)C(=O)N[C@@H](CO)C(=O)N[C@@H](CC(=O)O)C(=O)N(C)[C@H](C(=O)N[C@@H](Cc1c[nH]c2ccccc12)C(=O)N[C@@H](Cc1c[nH]c2ccccc12)C(=O)NCC(=O)NCC(=O)N[C@@H](C)C(=O)N[C@@H](CC(=O)O)C(=O)N[C@H](C(=O)N[C@@H](CC(=O)O)C(N)=O)[C@@H](C)O)C(C)C (Ac-EDDSD[NMeV]WWGGADTD-NH2)

- Ki (Table 8, in μM, read-out: Ki (nM) mean ± SEM): > 6250 nM
SMILES: CC[C@H](C)[C@H](NC(=O)[C@H](Cc1ccccc1)NC(=O)[C@H](CCC(=O)O)NC(=O)[C@@H](NC(=O)[C@H](CCC(=O)O)NC(C)=O)[C@@H](C)O)C(=O)N[C@@H](C)C(=O)N[C@@H](C)C(=O)NCC(=O)N1CCC[C@H]1C(=O)N[C@H](C(=O)NCC(=O)N[C@@H](CC(=O)O)C(=O)N[C@@H](CCC(=O)O)C(=O)N[C@@H](CC(=O)O)C(N)=O)[C@@H](C)O [ETEFIAAGPTGDED] (Ac-ETEFIAAGPTGDED-NH2)

- Ki (CPP tagged peptides overview, SD1/2 binding affinity, mean ± SEM, n ≥ 3, read-out: Ki): 105 ± 2 nM
- Ki [4]: 105 ± 2 nM
SMILES: CC[C@H](C)[C@H](NC(=O)[C@H](Cc1c[nH]c2ccccc12)NC(=O)[C@H](CC(=O)O)NC(=O)[C@H](CC(=O)O)NC(=O)[C@H](CC(=O)O)NC(=O)[C@H](CCC(=O)O)NC(=O)[C@H](CCCCN)NC(=O)[C@H](C)NC(=O)[C@H](C)NC(=O)[C@H](C)NC(=O)[C@H](CCC(=O)O)NC(=O)[C@H](CCCNC(=N)N)NC(=O)[C@H](CCCNC(=N)N)NC(=O)[C@H](CCCNC(=N)N)NC(=O)[C@H](CCCNC(=N)N)NC(=O)[C@H](CCCNC(=N)N)NC(=O)[C@H](CCCNC(=N)N)NC(=O)[C@H](CCCNC(=N)N)NC(=O)[C@H](CCCNC(=N)N)NC(C)=O)C(=O)N[C@@H](CC(=O)O)C(=O)N[C@@H](Cc1c[nH]c2ccccc12)C(=O)NCC(=O)N1CCC[C@H]1C(=O)N[C@H](C(=O)N[C@@H](CO)C(=O)N[C@@H](CC(=O)O)C(=O)N[C@@H](CC(=O)O)C(=O)N[C@@H](CC(=O)O)C(N)=O)[C@@H](C)O [Peptide R8-RL-17] (Ac-RRRRRRRREAAAKEDDDWIDWGPTSDDD-NH2)

- Ki [2]: 204 ± 4 nM
SMILES: CC(=O)N[C@@H](CCC(=O)O)C(=O)N[C@@H](CC(=O)O)C(=O)N[C@@H](CC(=O)O)C(=O)N[C@@H](CO)C(=O)N[C@@H](CC(=O)O)C(=O)N[C@H](C(=O)N[C@@H](Cc1c[nH]c2ccccc12)C(=O)N[C@@H](Cc1c[nH]c2ccccc12)C(=O)NCC(=O)NCC(=O)N[C@@H](CO)C(=O)N[C@@H](CC(=O)O)C(=O)N[C@H](C(=O)N[C@@H](CC(=O)O)C(N)=O)[C@@H](C)O)C(C)C (Ac-EDDSDVWWGGSDTD-NH2)

- Ki [4]: 20.6 ± 0.2 nM
SMILES: CC[C@H](C)[C@H](NC(=O)[C@H](Cc1c[nH]c2ccccc12)NC(=O)[C@H](CC(=O)O)NC(=O)[C@H](CC(=O)O)NC(=O)[C@H](CC(=O)O)NC(=O)[C@H](CCC(=O)O)NC(=O)[C@H](CCCNC(=N)N)NC(=O)[C@H](CCCNC(=N)N)NC(=O)[C@H](CCCNC(=N)N)NC(=O)[C@H](CCCNC(=N)N)NC(C)=O)C(=O)N[C@@H](CC(=O)O)C(=O)N[C@@H](Cc1c[nH]c2ccccc12)C(=O)N[C@@H](Cc1ccc(O)cc1)C(=O)N[C@@H](CC(=O)O)C(=O)N[C@@H](CO)C(=O)N[C@@H](CC(=O)O)C(=O)N[C@@H](CC(=O)O)C(=O)N[C@@H](CC(=O)O)C(N)=O [Peptide 4R-16] (Ac-RRRREDDDWIDWYDSDDD-NH2)

- Ki [5]: 688 ± 11 nM
SMILES: CC[C@H](C)[C@H](NC(=O)[C@H](C)NC(=O)[C@H](CCC(=O)O)NC(=O)[C@@H](NC(=O)[C@H](CCC(=O)O)NC(C)=O)[C@@H](C)O)C(=O)N[C@@H](C)C(=O)N[C@@H](Cc1c[nH]c2ccccc12)C(=O)NCC(=O)N1CCC[C@H]1C(=O)N[C@H](C(=O)NCC(=O)N[C@@H](CC(=O)O)C(=O)N[C@@H](CCC(=O)O)C(=O)N[C@@H](CC(=O)O)C(N)=O)[C@@H](C)O [ETEAIAWGPTGDED] (Ac-ETEAIAWGPTGDED-NH2)

- Ki [3]: 281 ± 4 nM
SMILES: CC(=O)N[C@@H](CCC(=O)O)C(=O)N[C@@H](CC(=O)O)C(=O)N[C@@H](CC(=O)O)C(=O)N[C@@H](CO)C(=O)N[C@@H](CC(=O)O)C(=O)N[C@H](C(=O)N[C@@H](Cc1c[nH]c2ccccc12)C(=O)N[C@@H](Cc1c[nH]c2ccccc12)C(=O)NCC(=O)NCC(=O)N[C@@H](C)C(=O)N[C@@H](CC(=O)O)C(=O)N[C@H](C(=O)N[C@@H](CC(=O)O)C(=O)N[C@@H](Cc1ccc(O)cc1)C(=O)N[C@@H](C)C(=O)N[C@@H](CC(=O)O)C(N)=O)[C@@H](C)O)C(C)C (Ac-EDDSDVWWGGADTDYAD-NH2)

- Ki [5]: 159 ± 3 nM
SMILES: CC[C@H](C)[C@H](NC(=O)[C@H](Cc1ccccc1)NC(=O)[C@H](CCC(=O)O)N(C)C(=O)[C@@H](NC(=O)[C@H](CCC(=O)O)NC(C)=O)[C@@H](C)O)C(=O)N[C@@H](C)C(=O)N[C@@H](Cc1c[nH]c2ccccc12)C(=O)NCC(=O)N1CCC[C@H]1C(=O)N[C@H](C(=O)NCC(=O)N[C@@H](CC(=O)O)C(=O)N[C@@H](CCC(=O)O)C(=O)N[C@@H](CC(=O)O)C(N)=O)[C@@H](C)O [ET(N-Me-E)FIAWGPTGDED] (Ac-ET[NMeE]FIAWGPTGDED-NH2)

- Ki [3]: 513 ± 17 nM
SMILES: CC(=O)N[C@@H](CC(=O)O)C(=O)N[C@@H](CO)C(=O)N[C@@H](C)C(=O)N[C@@H](CC(=O)O)C(=O)N[C@@H](C)C(=O)N[C@@H](CCC(=O)O)C(=O)N[C@@H](CCC(=O)O)C(=O)N[C@@H](CC(=O)O)C(=O)N[C@@H](CC(=O)O)C(=O)N[C@@H](CO)C(=O)N[C@@H](CC(=O)O)C(=O)N[C@H](C(=O)N[C@@H](Cc1c[nH]c2ccccc12)C(=O)N[C@@H](Cc1c[nH]c2ccccc12)C(=O)NCC(=O)NCC(=O)N[C@@H](C)C(=O)N[C@@H](CC(=O)O)C(=O)N[C@H](C(=O)N[C@@H](CC(=O)O)C(=O)N[C@@H](Cc1ccc(O)cc1)C(=O)N[C@@H](C)C(=O)N[C@@H](CC(=O)O)C(N)=O)[C@@H](C)O)C(C)C (Ac-DSADAEEDDSDVWWGGADTDYAD-NH2)

- Ki [4]: 43.4 ± 1 nM
SMILES: CC[C@H](C)[C@H](NC(=O)[C@H](Cc1c[nH]c2ccccc12)NC(=O)[C@H](CC(=O)O)NC(=O)[C@H](CC(=O)O)NC(=O)[C@H](CC(=O)O)NC(=O)[C@H](CCC(=O)O)NC(=O)[C@H](CCCNC(=N)N)NC(=O)[C@H](CCCNC(=N)N)NC(=O)[C@H](CCCNC(=N)N)NC(=O)[C@H](CCCNC(=N)N)NC(=O)[C@H](CCCNC(=N)N)NC(=O)[C@H](CCCNC(=N)N)NC(C)=O)C(=O)N[C@@H](CC(=O)O)C(=O)N[C@@H](Cc1c[nH]c2ccccc12)C(=O)NCC(=O)N1CCC[C@H]1C(=O)N[C@H](C(=O)N[C@@H](CO)C(=O)N[C@@H](CC(=O)O)C(=O)N[C@@H](CC(=O)O)C(=O)N[C@@H](CC(=O)O)C(N)=O)[C@@H](C)O (Ac-RRRRRREDDDWIDWGPTSDDD-NH2)
